CCn1c2ccccc2c2cc(-n3nncc3-c3ccccc3)ccc21
solubility (mole fraction)
Conditions	278.15 K	283.15 K	288.15 K	293.15 K	298.15 K	303.15 K	308.15 K	313.15 K	318.15 K	323.15 K
in acetonitrile	0.00173	0.0022	0.00272	0.00336	0.00412	0.00505	0.00609	0.00733	0.00897	0.011
in ethanol	0.000446	0.000546	0.000674	0.00084	0.00102	0.00124	0.00151	0.00183	0.0022	0.00262
in isopropanol	0.000211	0.000278	0.000371	0.000491	0.000639	0.000825	0.00105	0.00135	0.00174	0.00224
in n-propanol	0.000523	0.000671	0.000837	0.00103	0.0013	0.00161	0.002	0.00246	0.00297	0.00357
in water	5.79e-07	7.99e-07	1.08e-06	1.46e-06	1.96e-06	2.61e-06	3.4e-06	4.49e-06	5.81e-06	7.48e-06
